Data set [1] concerns SARS-CoV-2. The data set can be described thus: microbe, parasite or virus in culture. The data set is classed as cell-based. Conditions: Severe acute respiratory syndrome coronavirus 2, A549-ACE2, 48 h; read-out: IC50 for inhibition of SARS CoV-2 mediated cell killing.
Data set [2] relates to coronavirus USA_WA1/2020 SARS CoV-2. Put plainly: SARS CoV-2 CPE assay for antiviral activity (Vero E6 host cells, Cell Titer-Glo). The data set is classed as cell-based. Conditions: read-out: IC50 for inhibition of SARS CoV-2 mediated cell killing. A general note: ATP-based viability assays read luminescence as a measure of living cells.
Data set [3] can be described thus: in vitro. The data set is classed as cell-based. Conditions: African green monkey. The protocol: Compound cytotoxicity (CC50) is assessed in a BSL-2 counter screen as follows: Host cells in media are added in 25 μl aliquots (4000 cells/well) to each well of assay ready plates prepared with test compounds as above. […] DMSO is maintained at a constant concentration for all wells (0.3%) as dictated by the dilution factor of stock test compound concentrations. After incubating plates at 37° C./5% CO2 and 90% humidity for 72 hours, 30 μl Cell Titer-Glo (Promega) is added to each well. Luminescence is read using a BMG PHERAstar plate reader following incubation at room temperature for 10 minutes to measure cell viability.

Data set [4] in a line: in vitro. The settings on record: human.
Where [5] appears, read: Vero C1008, Vero E6 cells, 72 hours, 10-point dose response, high concentration 15 μM.

Read-outs that look alike come from different tables or passages of the source. Some results are limits rather than exact numbers.

Regarding `Cc1nccc(Nc2cc(-c3cc(-c4cccnc4C(F)(F)F)[nH]c(=O)c3)ccn2)n1` [Compound 1], the IC50 – broadly, the concentration that inhibits the measured activity by half – in data set [1] amounted to 0.059 µM; in data set [2] (setting [5]), 0.12 µM. Besides, the CC50 at 72 h in data set [3] is above 30 µM. The same compound yielded a CC50 in data set [4] of 2 µM.
For `Cc1nccc(Nc2cc(-c3cc(-c4ccccc4Cl)[nH]c(=O)c3)ccn2)n1` [Compound 2], the IC50 in data set [1] and in data set [2] (setting [5]) was below 0.02 µM in each case. In addition, the CC50 at 72 h in data set [3] was found to be 0.482 µM. The compound further returned a CC50 in data set [4] of 0.159 µM.
In the case of `Cc1nccc(Nc2cc(-c3cc(-c4ccccc4C(F)(F)F)n(C)c(=O)c3)ccn2)n1` [Compound 3], the IC50 is below 0.02 µM in data set [1] and 0.036 µM in data set [2] (Vero C1008, 72 h). In data set [3], this compound came in with a CC50 at 72 h of 1960 µM. The compound further came in with a CC50 in data set [4] of 1370 µM.
`CCS(=O)(=O)N1CCN(c2cc(-c3ccnc(Nc4ccnc(C)n4)c3)cc(=O)[nH]2)C(C(F)(F)F)C1` (stereo not shown) [Compound 4]: the IC50 came out at 0.035 µM in data set [1] and 0.109 µM in data set [2] (Vero C1008, 72 h). In data set [3], this compound returned a CC50 at 72 h of 2760 µM. The compound further yielded a CC50 in data set [4] of 0.557 µM.

The values are drawn from US20220184077A1, “ANTI-VIRAL ACTIVITY OF VPS34 INHIBITORS” (Deciphera Pharmaceuticals, LLC, priority 2020, published 2022).
